# Measured values: US6958324B2, “Inosine compounds and their use for treating or preventing an inflamation or a reperfusion disease” (Inotek Pharmaceuticals Corporation, priority 1998, dated 2005)
# Marks after values point to notes of the source that are not given here.
# Key:
# BALB/c mice = assay: LPS-induced lethality (survival) in mice; type: in vivo; details: 100 mg/kg 30 min before 70 mg/kg i.p. LPS; 24-96 h; p<0.05 vs vehicle
# Procedure: Because inosine skewed the cytokine response towards an anti-inflammatory profile, the ability of inosine to decrease LPS-induced lethality in a murine model system was investigated. BALB/c mice were pretreated with drug vehicle (physiologic saline) or 100 mg/kg inosine 30 min before the injection of 70 mg/kg of i.p. LPS. Survival was recorded at 24, 48, 72, and 96 h after the LPS injection. Results from the summary of two different experiments are shown. N=16 animals in each group. Inosine improved survival rate at 24-96 h (p<0.05). Therefore, inosine conferred significant protection in this endotoxemic model. Thus, inosine is useful for treating or preventing an inflammation disease or a reperfusion disease.
# STZ diabetic mice = assay: Streptozotocin-induced diabetes: blood glucose, diabetes incidence, pancreatic insulin content; type: in vivo
# Procedure: The effect of inosine was in a […] model of streptozotocin-induced diabetes was examined. Mice were treated with streptozotocin (40 mg/kg in citrate buffer) or vehicle (citrate buffer) i.p. for 5 consecutive days to induce diabetes. Blood glucose was monitored over the following 21 days using a one-touch blood glucose meter (Lifescan). […] Hyperglycemia was defined as non-fasting blood glucose level higher than 200 mg/dL. Mice were treated simultaneously with streptozotocin injection throughout the 21 days of the experiments and with vehicle or inosine (100 mg/kg oral gavage, twice a day). Samples of pancreas were removed on day 21 and weighed before being placed into 6 mls of acid ethanol (23:7:0.45 ethanol:dH2O:HCl) and homogenized. The pancreas samples were incubated for 72 h at 4° C. before being centrifuged. The insulin content of the supernatant was then determined using an ELISA assay.
# An “*” indicates significant reduction of circulating glucose or diabetes incidence in the inosine-treated streptozotocin rats when compared to vehicle-treated streptozotocin rats (p<0.05).
# An “*” in TABLE 7 indicates significant decreases in insulin content in response to streptozotocin when compared to control, and a “#” indicates significant preservation of pancreatic insulin content in the inosine-treated streptozotocin rats (p<0.05). Pancreatic insulin content at 21 days in streptozotocin diabetic mice receiving vehicle or inosine treatment.
# DSS mice [1] = assay: DSS colitis, inosine versus 5′-IMS at 50, 100 and 300 μmoles/kg/day; type: in vivo; details: for protection against colonic shortening / protection against visible histological damage: 50, 100 and 300 μmoles/kg/day, vs vehicle treated DSS animals; for dose at which colonic MDA levels were reduced: first statement ('For example'); for dose at which MDA levels were reduced (second statement, 'Similarly'): second statement of b313
# Description: The effect of various doses (50, 100 and 300 μmoles/kg/day) inosine and IMS on the outcome of DSS (dextran sodium sulfate) colitis in mice. Colonic length, gross histologic score, colonic MDA content and colonic MPO content have been determined. N=10 animals per experimental groups. *p<0.05 and **p<0.01 indicates significant improvements in drug treated DSS animals, when compared to vehicle treated DSS animals. Mean +SEM are presented, except for histological scores, which are presented as medians.
# Significant improvements in 5′-IMS treated DSS animals was observed as compared to vehicle treated DSS animals. Mean ±SEM are shown, except for the histological scores, which are presented as medians.
# male BALB/c mice = assay: Plasma cytokine levels after LPS challenge in endotoxemic mice; type: in vivo; details: 100 mg/kg i.p. 30 min before LPS 70 mg/kg i.p.
# Procedure: To determine whether inosine inhibits inflammatory cytokine release in vivo, male BALB/c mice were injected with inosine (100 mg/kg; i.p.) followed 30 minutes later by an i.p. injection of LPS (70 mg/kg). Plasma levels of the different cytokines were measured at various times (90 mm 2 h, 4 h, and 8 h) after the LPS challenge.
# The results are shown in FIGS. 1A-E. Data are mean ±SEM of n=8 mice. The asterisk in the figure indicates p<0.05. […] Inosine was also shown to augment IL-10 (FIG. 1E) production in endotoxemic mice. […] Inosine inhibits the production of proinflammatory cytokines, but also potentiates the formation of the anti-inflammatory IL-10. Accordingly, inosine is useful for treating or preventing an inflammation disease or a reperfusion disease.
# DSS mice [2] = assay: DSS-induced inflammatory bowel disease model, inosine treatment; type: in vivo; details: 5% DSS 10 days, inosine 200 mg/kg/day orally
# Procedure: The effect of inosine in a mouse model of inflammatory disease was examined. Inosine was administered (oral administration, 100 mg/kg, 2 times a day), in a mouse model of inflammatory bowel disease induced by dextran sulfate solution (DSS). This system is well-characterized and is considered a reliable model of inflammatory bowel disease. Efficacy of a pharmaceutical compound in this model is taken as evidence that the compound is likely to be effective in human beings (Sasaki et al., Scand. J. Immunol. 51:23-8,2000; Gaudio et al, Dig. Dis. Sci. 44:1458-75, 1999; Murthy et al., Aliment Pharmacol. Ther. 13:251-60, 1999; Kimura et al., Arzneimittelforschung 48:1091-96, 1998; Dieleman et al., Scand. J Gastroenterol. Suppl. 223:99-104, 1997).
# Symptoms associated with the DSS model were induced as follows. Mice were patiented to a drinking water containing 5% DSS for 10 days, in the presence (n=10) or absence (n=10) of inosine treatment (200 mg/kg/day, orally). At the end of 10 days, animals were evaluated for the incidence of bloody diarrhea, for colon shortening, and colon histopathology. Colonic myeloperoxidase (MPO) and malondialdehyde (MDA) levels were measured. These parameters provide a good cross-section of the functional and inflammatory changes associated with the current model of inflammatory bowel disease.
# Significant protective effect of inosine in the presence of DSS is indicated as *p<0.05, when compared to the values with DSS alone in the absence of inosine.
# [3] = test system: peritoneal macrophages stimulated with LPS/IFN-γ; assay: IL-12 and TNF production by stimulated peritoneal macrophages exposed to inosine; type: cell-based
# Procedure: To determine the effect of inosine on inflammatory cytokine production, stimulated macrophages were exposed to inosine at 0 to 1000 μM, after which production of cytokines IL-12 and TNF was measured.
# DBA/1J mice [4] = assay: Collagen-induced arthritis: incidence and severity; type: in vivo
# Procedure: The effect of 5′-IMS in a murine model system of collagen-induced arthritis was studied. Male DBA/1J mice were injected intradermally on day 1 with 0.1 mL of an emulsion of bovine type II collagen plus complete Freunds's adjuvant (CFA). A second injection was administered on day 21. Treatment with 5′-IMS (100 or 200 mg/kg/day, BID) per gavage was begun on the day of the second collagen/CFA injection and continued throughout the study, which was terminated on day 45 (24 days after the second injection).
# (§1) Mice were evaluated daily for arthritis by using a macroscopic scoring system ranging from 0-4 (0=no signs of arthritis, 1=swelling or redness of the paw or one digit, 2=two joints involved, 3=more than 2 joints involved, 4=severe arthritis of the entire paw). The arthritic index for each mouse was calculated by adding the four scores of the individual paws. […] At study termination, paws were removed from all animals in each treatment group and randomly assigned to MPO, MDA or chemokines/cytokine measurements.
# Arthritis was induced in DBA/1J mice by two 100 μL sub-dermal injections of a 1:1 mixture of bovine collagen type II (1 mg/mL) and complete Freund's adjuvant (1 mg/mL) 21 days apart. Gavage treatment with 5′-IMS (100 or 200 mg/kg/day, BID) commenced on the day of the second injection. […] Statistical analysis was performed by Student's t-test or fisher's exact test as appropriate. […]
# DBA/1J mice [5] = assay: Collagen-induced arthritis: chemokine and cytokine levels in paws; type: in vivo; details: 200 mg/kg/day gavage, 24 days after second collagen injection
# Procedure: as §1
# The effect of 5′-IMS on the levels of the chemokine MIP-1α and the cytokines 1L-12 and TNF-α in paws of DBA/1J mice treated with subdermal injections of collagen to induce arthritis was studied. Gavage treatment with 5′-IMS (100 or 200 mg/kg/day, BID) commenced on the day of the second collagen injection and paws were taken 24 days later and homogenized for analysis. […] Data are expressed as mean ±SEM from n=10 animals. […] Accordingly, 5′-IMS, an illustrative inosine compound, is useful for treating or preventing an inflammation disease, particularly arthritis, in a patient.
# DBA/1J mice [6] = assay: Collagen-induced arthritis: MPO and MDA levels in paws; type: in vivo; details: 100 or 200 mg/kg/day, BID, gavage; paws 24 days after second collagen injection
# Procedure: as §1
# The effect of 5′-IMS on the levels of MPO and MDA in paws of DBA/1J mice treated with subdermal injections of collagen to induce arthritis was studied. Gavage treatment with 5′-IMS (100 or 200 mg/kg/day, BID) commenced on the day of the second collagen injection and paws were taken 24 days later and homogenized for MPO and MDA measurements. Data are expressed as mean ±SEM from n=10 animals. […] Accordingly, 5′-IMS, an illustrative inosine compound, is useful for treating or preventing an inflammation disease, particularly arthritis, in a patient.
# [7] = day 0, inosine 100 mg/kg oral gavage twice a day
smiles,measurement,setting,value
"OC[C@H]1O[C@@H](n2cnc3c(O)ncnc32)[C@H](O)[C@@H]1O [Inosine, inosine]",survival rate,BALB/c mice,improved
same,Pancreatic insulin content,"STZ diabetic mice; 21 days, inosine treated, STZ vehicle 6 ± 1, control 68 ± 11",21 ± 4# ng insulin/mg protein
same,Diabetes Incidence,STZ diabetic mice; [7],0%
same,Mean Blood Glucose,STZ diabetic mice; [7],95 ± 4 mg/dL
same,Median Blood Glucose,STZ diabetic mice; [7],96 mg/dL
same,Diabetes Incidence,"STZ diabetic mice; day 7, inosine 100 mg/kg oral gavage twice a day, STZ vehicle 8",0%
same,Mean Blood Glucose,"STZ diabetic mice; day 7, inosine 100 mg/kg oral gavage twice a day, STZ vehicle 137 ± 7",112 ± 6* mg/dl
same,Median Blood Glucose,"STZ diabetic mice; day 7, inosine 100 mg/kg oral gavage twice a day, STZ vehicle 146",117* mg/dl
same,Diabetes Incidence,"STZ diabetic mice; day 21, inosine 100 mg/kg oral gavage twice a day, STZ vehicle 67",25* %
same,Mean Blood Glucose,"STZ diabetic mice; day 21, inosine 100 mg/kg oral gavage twice a day, STZ vehicle 231 ± 15",152 ± 20* mg/dl
same,Median Blood Glucose,"STZ diabetic mice; day 21, inosine 100 mg/kg oral gavage twice a day, STZ vehicle 260",130* mg/dl
same,protection against colonic shortening,DSS mice [1],not
same,protection against visible histological damage,DSS mice [1],not
same,dose at which colonic MDA levels were reduced,DSS mice [1],100 µmol/kg/day
same,"dose at which MDA levels were reduced (second statement, 'Similarly')",DSS mice [1],300 µmol/kg/day
same,production of TNF-α (plasma),male BALB/c mice; FIG. 1A,suppress
same,production of IL-12 (plasma),male BALB/c mice; FIG. 1B,suppress
same,production of IFN-γ (plasma),male BALB/c mice; FIG. 1C,suppress
same,production of MIP-1α (plasma),male BALB/c mice; FIG. 1D,suppress
same,IL-10 production (plasma),male BALB/c mice; FIG. 1E,augment
same,Gut histological damage (1-4 scale),DSS mice [2]; DSS alone 3.6 ± 0.4,1.2 ± 0.4*
same,Gut malondialdehyde levels,DSS mice [2]; DSS alone 3.7 ± 0.8,2.1 ± 0.5* nmol/mg protein
same,Colonic length,"DSS mice [2]; DSS alone 4.2 ± 0.1, in cm (unit assumed)",5.1 ± 0.1*
same,Weight loss of the animals at 10 days,DSS mice [2]; DSS alone 20 ± 2,13 ± 1* %
same,Incidence of rectal bleeding,DSS mice [2]; DSS alone 90,20* %
same,Gut myeloperoxidase levels,DSS mice [2]; DSS alone 296 ± 87,88 ± 14* nU/mg protein
same,IL-12,"[3]; Inosine 10 μM, control 6.84 ± 0.39",5.9 ± 0.19 ng/mL
same,TNF,"[3]; Inosine 10 μM, control […] ± 1.89",10.08 ± 1.3 ng/mL
same,IL-12,[3]; Inosine 30 μM,5.1 ± 0.14 ng/mL
same,TNF,[3]; Inosine 30 μM,8.38 ± 0.14 ng/mL
same,IL-12,[3]; Inosine 100 μM,4.46 ± 0.62 ng/mL
same,TNF,[3]; Inosine 100 μM,7.61 ± 0.33 ng/mL
same,IL-12,[3]; Inosine 300 μM,4.94 ± 0.06 ng/mL
same,TNF,[3]; Inosine 300 μM,5.45 ± 0.52 ng/mL
same,IL-12,[3]; Inosine 1000 μM,4.34 ± 0.39 ng/mL
same,TNF,[3]; Inosine 1000 μM,5.62 ± 0.88 ng/mL
"O=S(=O)(O)OC[C@H]1O[C@@H](n2cnc3c(O)ncnc32)[C@H](O)[C@@H]1O [5′-IMS, inosine 5′-monosulfate]",severity of arthritis,"DBA/1J mice [4]; 100 or 200 mg/kg/day, BID, gavage",significantly reduced
same,prevalence of arthritis,"DBA/1J mice [4]; both dosing regimens (100 or 200 mg/kg/day, BID, gavage), day 24 post second collagen injection, reduced from 90%",25%
same,protection against colonic shortening,DSS mice [1],provided significant protection
same,protection against visible histological damage,DSS mice [1],provided significant protection
same,dose at which colonic MDA levels were reduced,DSS mice [1],50 µmol/kg/day
same,"dose at which MDA levels were reduced (second statement, 'Similarly')",DSS mice [1],50 µmol/kg/day
same,levels of MIP-1α in paws,DBA/1J mice [5],significantly reduced
same,levels of TNF-α in paws,DBA/1J mice [5],significantly reduced
same,IL-12 levels in paws,DBA/1J mice [5]; p=0.09,tended to reduce
same,lipid peroxidation (reflected by MDA) in joints,DBA/1J mice [6],profoundly reduced
same,neutrophil infiltration (reflected by MPO concentration) in joints,DBA/1J mice [6],profoundly reduced
